For one experiment, the system named is human plasma renin. The experiment can be described thus: human plasma renin IC50 determination at pH 7.4. Type of experiment: biochemical. As for the experimental part:
The following method was used for in vitro evaluation of the renin inhibitors of Formula I : The human plasma renin IC50 values for inhibitors of Formula I were determined at pH 7.4 following the procedure described in J. Boger, L.S. Payne, D.S. Perlow, N.S. Lohr, M. Poe, E.H. Blaine, E.H. Ulm, T.W. Schorn, B.I. Lamont, T.Y. Lin, M. Kawai, D.H. Rich and D.F. Veber, J. Med. Chem., 28,1779 (1985).

The subject of experiment [1] is sodium-deficient Rhesus monkeys. Nature of the experiment: intravenous evaluation of renin inhibitors in conscious sodium-deficient Rhesus monkeys (blood pressure lowering). Type of experiment: in vivo. The note with it: i.v. bolus. From the text:
The following methods were used for in vivo evaluation of the renin inhibitors of Formula I : Intravenous evaluation of renin inhibitors in concious sodium-deficient Rhesus monkeys : Rhesus monkeys, male and female, weighing 2.6-4.5 Kg, were surgically prepared with chronic arterial and venous catheters and vascular access ports for direct monitoring of mean arterial pressure (MAP) and heart rate (HR). The animals were maintained on a low sodium diet (1.2 mmol Nalday) plus friut for a week, and administered LASIX (furosemide) at 2.5 mg/Kg, intramuscularly the evening prior to the experiment The animals had been trained to sit quietly in the chairs with water ad libium for the duration of the experiment. The inhibitors were administered by bolus injection using 0.5% acetic acid-5% dextrose in water as the vehicle (0.4 ml/Kg), and MAP and HR were measured. Blood samples were withdrawn at different time intervals beginning at the nadir of hypotensive response. PRAwas determined as described above. […] A projected ED50 dose for each inhibitor was calculated using the following furmula : ED50 (Test Inhibitor, umoles/Kg) = ED50 (SCRIP) X [ICso (Test Inhibitor)/ICso (SCRIP)], where the IC50 values were determined against human plasma renin. […] Percent inhibition of monkey PRA, changes in MAP and HR were calculated and plotted against time. […]

Data on one compound can be found in patent publication EP0432974A1, “Cyclic renin inhibitors” (MERCK & CO. INC., priority 1989, dated 1991).

Square brackets hold non-standard residues; d marks the D form. Peptide text beside a SMILES is read from it. * marks the point of attachment. Sta = CC(C)C[C@H](N)[C@@H](O)CC(=O)O; Isovaleryl = CC(C)CC(=O)*

For orientation: IC50 means the midpoint of a concentration-inhibition curve.

In turn, `CC(C)CC(=O)N[C@@H](Cc1c[nH]cn1)C(=O)N1CCC[C@H]1C(=O)N[C@@H](Cc1ccccc1)C(=O)N[C@@H](Cc1c[nH]cn1)C(=O)N[C@@H](CC(C)C)[C@@H](O)CC(=O)N[C@@H](CC(C)C)C(=O)N[C@@H](Cc1ccccc1)C(N)=O` [SCRIP, Iva-His-Pro-Phe-His-Sta-Leu-Phe-NH2] (Isovaleryl-HPFH[Sta]LF-NH2) had an IC50 in the experiment on human plasma renin of 3.7 nM. Also, the “ED50 (i.v. dose required to lower blood pressure by 50% of the maximal response)” value in experiment [1] stood at 0.039 µmol/kg.
